# Experiments:
# U251 cells [1] = experiment: Cell viability assay (Muse Count & Viability Kit); format: cell-based, human; settings: in contact for all the treatment time
# Description: (§1) The human glioma U251 cells[50] were cultured in humidified atmosphere of 5% CO2/air in RPMI-1640 medium (Gibco, Life Technologies, Monza, Italy) supplemented with 10% (v/v) fetal bovine serum (FBS, Biowest, Nuaillé, France), 100 units/mL penicillin and 100 µg/mL streptomycin (Pen-Strep, Sigma-Aldrich, Saint Louis, Missouri, USA). All PNA transfection procedures were performed under the conditions described here below. Briefly, a mixture constituted by RPMI-1640 medium containing calixarene 1 at 2.5 µM final concentration, and 2 µM PNA was prepared and incubated for 20 minutes at room temperature, without serum. After the incubation, 10% (v/v) of FBS was added. Cell culture medium was removed and replaced with the transfection mixture, which was maintained in contact with cells until the end of the treatment.
# (§2) Cell viability after the transfection with 1 was evaluated with Muse Count & Viability Kit (Millipore, Billerica, Massachusetts, USA), using Muse Cell Analyser (Millipore, Billerica, Massachusetts, USA). To perform analysis, 50 µL of suspension cells were added to 225 µL of Muse Count & Viability Reagent, the solution was incubated at room temperature for 5 minutes, protected from the light and then 1 × 10^3 events were analysed using Muse Cell Analyser (Millipore, Billerica, Massachusetts, USA). The effects on cell growth were studied by determining the cell number/ml using a Z2 Coulter Counter (Coulter Electronics, Hialeah, FL, USA). The effects of calixarene 1 on cell viability, cell growth and cell morphology were compared to those of Lipofectamine RNAiMAX (Invitrogen, Monza, Italy).
# One of the major issues associated with the use of commercial available vehicles is the high toxicity of these compounds. For such reason 1 was first evaluated for its effect on cell viability when used to transfect molecules. […] Viability profile was determined at three different time points, 24, 48 and 72 hours after transfection, with three different concentrations of […], 1.25, 2.5, and 10 μM. […]
# U251 cells [2] = experiment: Effects on cell growth (cell number/ml, Z2 Coulter Counter); format: cell-based, human; settings: after 72 hours of cell culture, effect of 1 significant only at 10 µM, lipofectamine within 0.5–12 μl/ml
# Description: as §2
# (§3) Comparison was done with the effects of lipofectamine analyzed after 72 hours of cell culture. […] These findings are in agreement with the cell morphology profile shown in Fig. 2(D–F) and determined by microscopic inspection after 72 hours of cell culture in the presence of 2.5 µM calixarene 1 (Fig. 2E), 3μL/mL lipofectamine (Fig. 2F) or in the absence of both the delivery systems (Fig. 2D).
# U251 cells [3] = experiment: Cell morphology by microscopic inspection; format: cell-based, human; settings: 72 hours of cell culture, 2.5 µM calixarene 1 or 3μL/mL lipofectamine
# Description: as §2, §3
# Fl-a221PNA = experiment: Fluorescence titration of Fl-a221PNA with calixarene 1; format: binding; settings: Fl-a221PNA 2 μM, HEPES 16 mM, NaCl 40 mM, pH 7.4, λex = 494 nm, 1 added stepwise up to 9.9 μM
# Description: For a fast evaluation of the interaction with PNA, fluorescently labelled Fl-a221PNA (Fl: Fluorescein) was diluted to a final concentration of 2 μM in buffer (HEPES 16 mM, NaCl 40 mM, pH 7.4) and placed in a fluorescence cuvette; to this, a concentrated solution of the argininocalix[4]arene 1 (100 μM in EtOH/H2O/DMSO = 2/2/1 v/v/v) was added stepwise (up to a final concentration of 9.9 μM of calixarene), and changes in the fluorescein emission intensity (with λex = 494 nm) were measured after each addition. Correction for lamp fluctuation was performed by measuring the fluorescence of a standard 2 μM fluorescein solution after each spectra; this correction and that for dilution were performed using the formula: Fi, corr = Fi,obs × (Fin /Fi) × (Vi /Vin), where Fi: intensity at the ith point and Fin: initial intensity of the fluorescein standard, Vi: total volume at the ith point and Vin: initial volume.
# In order to rule out that the observed delivery was solely due to permeabilization of cells caused by the argininocalixarene, without interaction between the carrier and the PNA, Fl-a221PNA was titrated in vitro in buffer by adding 1 and measuring the changes in fluorescence emission (Fig. 4). […] A slight shift of the fluorescence maximum (from 519 to 523 nm) was also observed, consistent with a more polar microenvironment generated by the cationic calixarene.
# miR-221-3p = experiment: RT-qPCR hybridization to miR-221-3p probe; format: cell-based, human; settings: U251 cells, 48 hours, calixarene 1 at 2.5 μM, PNAs at 2 μM
# Description: as §1, with “Cell culture medium was removed and replaced with the transfection mixture, which was maintained in contact with cells until the end of the treatment.” left out
# For miRNAs quantification, obtained RNA was reverse transcribed using TaqMan MicroRNA Reverse Transcription Kit (Applied Biosystems, Foster City, CA, USA) and miRNA specific stem-loop primer (hsa-miR-96-5p, ID: 000186; hsa-miR-155-5p, ID: 002623; hsa-miR-210-3p, ID: 000512; hsa-miR-221-3p, ID: 000524). Reverse transcription quantitative polymerase-chain reaction (RT-qPCR) was performed according to the manufacturer’s protocols and as indicated elsewhere. […] The relative expression was calculated using the comparative cycle threshold method (ΔΔCT) and U6 snRNA (hsa U6 snRNA, ID:001973) and hsa-let-7c (hsa-let-7c, ID:000379) as endogenous controls. […]
substance,measurement,setting,value
tetraargininocalix[4]arene [compound 1],percentage of total live cells,"U251 cells [1]; 1.25 µM of 1, 24 hours after the transfection",no differences
same,percentage of total live cells,"U251 cells [1]; 2.5 µM of 1, 24 hours after the transfection",no differences
same,live cells percentage,"U251 cells [1]; 10 µM of 1, 24 hours after the transfection",slight decrease
same,effect on cell proliferation (cell growth),U251 cells [2],minor
same,effect on cell morphology,U251 cells [3],does not affect cell morphology
same,concentration of carrier at saturation of fluorescence quenching,Fl-a221PNA,2.5 µM
same,effect on miR-221-3p hybridization signal,miR-221-3p,no effects

# Source: article PMC6395679, “Efficient cell penetration and delivery of peptide nucleic acids by an argininocalix[4]arene” (Scientific Reports, 2019)
